# Values of other authors in patent publication EP0266968A2, “Gelled ointment of vasodilating agent” (Cohen, Gérard G., priority 1986, dated 1988).
# Tested on: penile arteries
compound,measurement,setting,value
COc1ccc(Cc2nccc3cc(OC)c(OC)cc23)cc1OC [papaverine],erections in the organic group,"29 organic impotent males, intracavernous injection","delayed, weaker and shorter erections"
same,duration of penile erections,40 to 160 mg injected intracavernously,approximately 2 hours
same,patients whose erections improved significantly,"63 patients with angiogenic impotence, repeated intracavernous injections completed by infusion of heparinized saline, mean follow up of one year",66%
same,haemodynamic and radiologic studies,done concomitantly with intracavernous injection,strong vasodilation in the penile arteries (even when pathologic) and diminished outflow from the cavernous bodies
